Experiments:
[1] = Observation of mice behavior in the PK study; format: in vivo; conditions: oral gavage 10 or 30 mg/Kg
Protocol: C57BL/6J mice were administered DDL-214, -218, or -219 (n = 3 per compound) by oral gavage at a dose of 30 mg/kg in a volume of 5 mL/Kg based on mouse weight. One hour later, mice were euthanized by pentobarbital over-anesthesia and trans-cardial collection of blood for isolation of plasma by centrifugation at 10,000 x g for 10 min at 4 °C. Brain tissue was collected for analysis, frozen on dry ice and stored at -80 °C before analysis.

[2] = system: SirT1 protein in N2a-E4 cells; assay: SirT1 protein levels in N2a-E4 cells (AlphaLISA); format: cell-based, murine
Protocol: Relative SirT1 mRNA and protein enhancement by racemate DDL-214 and enantiomers DDL-218 and − 219 was determined in murine neuroblastoma cells stably transfected with ApoE4 (N2a-E4)[25]. All test compounds in DMSO were prepared at 2x the final concentration in DMEM supplemented with 10% fetal bovine serum (FBS) and 1% pen-strep (PS) and 50 µL of each loaded into individual wells of a 96-well plate. Previously cultured N2a-E4 were then trypsinized, harvested, centrifuged, and counted; then 50 µL of cell suspension adjusted to 400 cells/µL was added to each well. The plate was then incubated at 37 °C, 5% CO2 for 48 h. Cells were treated with DDL-214, DDL-218, or DDL-219 at 5 µM final then incubated for 24 h. After incubation, the cells were lysed with 50 µL of ice-cold lysis buffer (0.4% SDS, 3.5% Triton X-100, 0.02% sodium deoxycholate, 28 mM TRIS pH 8) complemented with 1X final Halt™ Protease and Phosphatase Inhibitor Cocktail (Thermo Fisher catalog # 78442), placed on ice for 10 min and at -80 °C, followed by 3 freeze/thaw cycles.
An AlphaLISA comprising streptavidin donor beads (Revvity catalog # 6760002 S), biotinylated anti-SirT1 N-terminal antibody (monoclonal 19A7AB4, Abcam catalog # ab110304), and acceptor beads (Revvity catalog # 6772001) conjugated to the anti-SirT1 C-terminal antibody (monoclonal 1F3, Abcam catalog # ab104833) was used to determine SirT1 protein levels. […] The plates were read using an Envision plate reader.
Figure S3B. […] Compound treatment was done at 5 and 50 µM. SirT1 levels were measured by AlphaLISA followed and normalized to protein […]
Brain tissue was homogenized in PBS (pH 7.4) (1: 3 weight(mg)/volume(µL)) and the protein concentration of was determined using the Micro BCA™ Protein Assay Kit (Thermo Fisher Scientific, Cat#23235). […]
The % of the unbound drug (fu,bound) was calculated using the following equation: fu,bound = [normalized peak area in buffer side / normalized peak area in brain side] x 100 Liver Microsome Stability [t1/2 (min)] […]

[3] = system: NFYb mRNA; assay: Hippocampal NFYb mRNA in ApoE4-TR:5xFAD mice; format: in vivo; conditions: 20 mg/Kg BID, 56 days, vs vehicle
Protocol: The active (-) enantiomer, DDL-218, underwent efficacy testing in ApoE4-TR:5xFAD mice[27] that were 6-7.5 months old at the start of treatment. ApoE4-TR:5xFAD male and female mice received either 20 mg/Kg DDL-218 BID (~ 8- to10-hour interval; total daily dose of 40 mkd) on weekdays and a single 40 mg/Kg dose on weekends (n = 12) or vehicle-only (n = 11); 8 C57BL/6 mice received vehicle-only as behavioral controls. Dosing was by the oral route and by oral feeding using a pipette as previously described, not gavage, as it is safer for repeated oral dosing than gavage. The dose of 20 mg/kg BID (40 mkd) was selected based on findings from PK analysis and was the highest feasible in the formulation used for oral feeding (compound is first solubilized in water, then mixed strawberry syrup diluted in water, for a final vehicle that is 25% syrup and 75% water). […]
Total RNA was isolated from cells or brain tissue (Qiagen RNEasy kit). Total RNA (0.5–1.0 µg) mRNA was then converted to cDNA (SuperScript™ III First-Strand Synthesis SuperMix kit; Thermo Fisher), and gene mRNA levels were measured using a gene-specific qRT-PCR Taqman assays (Thermo Fisher). Gene mRNA levels were normalized to GAPDH mRNA levels measured either in the same cDNA sample or in the same qPCR reaction using multiplexing of gene-of-interest/VIC and GAPDH/FAM, normalized by the delta-delta-Ct method.

| Structure (SMILES) | changes in mice behavior indicative of drug-induced toxicity [1] | SirT1 protein levels ([2]; N2a-E4 cells, 5 µM, 24 h, vs DMSO control) | hippocampal NFYb mRNA [3] | SirT1 increase over vehicle ([2]; 50 uM in N2a-E4 cells) |
| --- | --- | --- | --- | --- |
| CC(N)C(=O)OC(C)(C)Cc1ccncc1 (stereo not shown) [DDL-218] | No notable changes in mice behavior | greatest increase in SirT1 protein | significantly increased | – |
| C#Cc1ccc(CC(C)(C)NC(=O)[C@H](C)N)cc1 [DDL-220] | – | – | – | 30% |

Reference: PMC12019328, “Discovery of an ApoE4-targeted small-molecule SirT1 enhancer for the treatment of Alzheimer’s disease” (Scientific Reports, 2025)
